Data published in PMC11312813, “An Optimized Peptide Antagonist of CXCR4 Limits Survival of BCR–ABL1-Transformed Cells in Philadelphia-Chromosome-Positive B-Cell Acute Lymphoblastic Leukemia” (International Journal of Molecular Sciences, 2024).
Structures can show the parent of a compound that is named as a salt.

How the values were obtained:
CXCR4 = conditions: ref [14],[17]; cited from earlier work
[1] = tested on: BCR–ABL1-transformed mouse B cells; assay: Real-time cell growth analysis by IncuCyte (GFP+ cell enrichment); type: cell-based; conditions: 1, 5 and 10 µM, over 96 h; n = 4–5
Procedure: A flat-bottom 96-well plate was coated with 0.01% poly-L ornithine (#P4957, Sigma-Aldrich, Hamburg, Germany) for 1 h at room temperature (RT). […] The cells were plated in 100 μL complete medium. […] Plate was prewarmed at 37 °C for 30 min prior to placing in the IncuCyte chamber. Scanning was conducted every two hours for total of 4 days.

SupB15 cells = assay: Real-time cell growth by IncuCyte, SupB15; type: cell-based, human; conditions: 1 µM, 96 h; n = 3
Procedure: (§1) The cells were plated in 100 μL complete medium.

697 cells = assay: Real-time cell growth by IncuCyte, 697; type: cell-based, human; conditions: 1 µM, 96 h; n = 3
Procedure: as §1

[2] = tested on: TKO-EV cells (untransformed mouse BM pro-B cells); assay: Real-time cell growth analysis by IncuCyte, untransformed TKO-EV cells; conditions: 1 µM, 96 h; n = 3
Procedure: A flat-bottom 96-well plate was coated with 0.01% poly-L ornithine (#P4957, Sigma-Aldrich, Hamburg, Germany) for 1 h at room temperature (RT). BCR–ABL1, SupB15, and 697 cells were counted as 0.5 × 10^5 cells/well, while TKO-BCR–ABL1 and TKO-EV cells as 1 × 10^5 cells/well, which were labeled with IncuCyte Cytotox Red dye (#4632, Sartorius, Ulm, Germany) as per the manufacturer’s protocol. The cells were plated in 100 μL complete medium. […] Plate was prewarmed at 37 °C for 30 min prior to placing in the IncuCyte chamber. Scanning was conducted every two hours for total of 4 days. Images were acquired using a 20X objective in phase contrast and fluorescence mode at 4 images/well and analyzed using the cell-by-cell analysis module of IncuCyte software version 2020B (Essen Bioscience, Ann Arbor, MI, USA).

| Compound | CXCL12-induced calcium signaling (CXCR4) | further results |
| --- | --- | --- |
| IVRWSKKVPCVS [WSC02, optimized 12-mer EPI-X4 derivative] | block CXCL12-induced calcium signaling | – |
| ILRWSRKLPCVS [JM#21] | block CXCL12-induced calcium signaling | – |
| IVRWSKK * (Pal)VPCVS [JM#169, fatty-acid-conjugated optimized EPI-X4 derivative] | block CXCL12-induced calcium signaling | GFP enrichment (BCR–ABL1 cell growth) vs DMSO [1]: significant reduction in cell growth only after 72 h |
| ILRWSRK * (Glu-Pal)LPCVS [JM#143, fatty-acid-conjugated optimized EPI-X4 derivative] | block CXCL12-induced calcium signaling | – |
| ILRWSRK * (Glu-Pal)-NH2 [JM#192, fatty-acid-conjugated optimized EPI-X4 derivative] | block CXCL12-induced calcium signaling | – |
| Cc1ccc(NC(=O)c2ccc(CN3CCN(C)CC3)cc2)cc1Nc1nccc(-c2cccnc2)n1 [Imatinib, Imatinib mesylate, reference compound] | – | SupB15 cell growth vs DMSO (SupB15 cells): significantly reduced SupB15 cell growth; 697 cell growth vs DMSO (697 cells): no effect on the 697 cells; Survival/growth of TKO-EV cells [2]: no effect on the TKO-EV cells |
